From patent US8466193B2, “Selective inhibitors of histone deacetylase” (Pharmacyclics, Inc., priority 2008, dated 2013)

Experiments:
[1] = target: T1, HDAC8 (Homo sapiens, UniProt Q9BY41); assay: Histone deacetylase activity, continuous trypsin-coupled assay; format: biochemical; conditions: 15 minutes preincubation; substrate acetyl-Gly-Ala-(N-acetyl-Lys)-AMC
T1 sequence (Q9BY41 1-377): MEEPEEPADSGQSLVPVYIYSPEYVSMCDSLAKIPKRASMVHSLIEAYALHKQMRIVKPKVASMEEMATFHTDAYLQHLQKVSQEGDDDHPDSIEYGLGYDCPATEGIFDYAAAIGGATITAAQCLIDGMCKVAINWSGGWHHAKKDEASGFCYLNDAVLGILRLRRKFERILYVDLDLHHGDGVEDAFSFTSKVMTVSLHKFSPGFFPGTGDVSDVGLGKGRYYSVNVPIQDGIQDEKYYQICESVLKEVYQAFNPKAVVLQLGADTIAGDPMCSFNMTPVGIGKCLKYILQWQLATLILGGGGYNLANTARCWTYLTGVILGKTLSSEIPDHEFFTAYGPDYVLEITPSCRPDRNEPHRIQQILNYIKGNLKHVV

[2] = test system: Jurkat cells; assay: Cell proliferation assay, growth inhibition by Alamar Blue; format: cell-based; conditions: Homo sapiens, 72 h, Jurkat cells treated with compound for 3 days
Experimental: Cell lines were obtained from DSMZ (Braunschweig, Germany) or ATCC (Manassas, Va.). Cells were grown in RPMI 1640 with 10% fetal bovine serum in a 5% CO2/air incubator at 37° C. Thapsigargin and BAPTA-AM were from Calbiochem (San Diego, Calif.). 3-((dimethylamino)methyl)-N-(2-(4-(hydroxycarbamoyl)phenoxy)ethyl)benzofuran-2-carboxamide is a broad-spectrum HDAC inhibitor which was synthesized as previously described. Other analogs with varying degrees of specificity towards the HDAC isoforms were synthesized as described herein.
Tumor cell lines and human umbilical vein endothelial cells (HUVEC) were cultured for at least two doubling times, and growth was monitored at the end of compound exposure using an Alamar Blue™ (Biosource, Camarillo, Calif.) fluorometric cell proliferation assay as recommended by the manufacturer. Compounds were assayed in triplicate wells in 96-well plates. The concentration required to inhibit cell growth by 50% (GI50) and 95% confidence intervals were estimated from nonlinear regression using a 4-parameter logistic equation. The effect of HDAC8 selective inhibitor compounds on cell proliferation in Jurkat cells was measured. Apoptosis was measured by Annexin-V flow cytommetry. Growth inhibition was measured by Alamar Blue assay. Cells were treated with compound for 3 days.

O=C(NO)c1ccc2ccn(CCOc3ccccc3)c2c1 [Compound 316, N-hydroxy-1-(2-phenoxyethyl)-1H-indole-6-carboxamide]
IC50 [1]: < 1000 nM
GI50 [2]: 2800 nM
